Results from US9107411B2, “Indolecarboxamides and benzimidazolecarboxamides as insecticides and acaricides” (BAYER INTELLECTUAL PROPERTY GMBH, priority 2011, dated 2015).
Where two headings read alike, the source gives them in different places.

Legend:
Myzus persicae = test: Myzus test (MYZUPE spray treatment); format: in vivo; details: Chinese cabbage leaf discs, after 6 days
Procedure: Myzus Test (MYZUPE Spray Treatment) Solvent: 78 parts by weight of acetone • • 1.5 parts by weight of dimethylformamide Emulsifier: 0.5 part by weight of alkylaryl polyglycol ether To produce an appropriate active ingredient formulation, 1 part by weight of active ingredient is mixed with the stated amounts of solvent and emulsifier, and the concentrate is diluted with emulsifier-containing water to the desired concentration. Leaf discs of Chinese cabbage (Brassica pekinensis) infested by all stages of the green peach aphid (Myzus persicae) are sprayed with an active ingredient formulation of the desired concentration. After 6 days, the efficacy in % is determined. 100% means that all of the aphids have been killed; 0% means that none of the aphids have been killed.

Phaedon cochleariae = test: Phaedon test (PHAECO spray treatment); format: in vivo; details: Chinese cabbage leaf discs, after 7 days
In short: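 Larval mortality was assessed 7 days after Phaedon cochleariae larvae were placed on dried, spray-treated Brassica pekinensis leaf discs. The formulation was an acetone/dimethylformamide concentrate with alkylaryl polyglycol ether emulsifier, diluted in emulsifier-containing water. Results are given as % kill, from 0 (no larvae dead) to 100 (all dead).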

Spodoptera frugiperda = Spodoptera frugiperda test (SPODFR spray treatment); format: in vivo; details: maize leaf discs, after 7 days
In short: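 Mortality read-out at 7 days, given as % efficacy, where 100% means every caterpillar dead and 0% none. Caterpillars were placed on dried maize leaf discs that had been sprayed with test formulation. That formulation was an acetone/dimethylformamide concentrate diluted in emulsifier-containing water.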

Tetranychus urticae = test: Tetranychus test, OP-resistant (TETRUR spray treatment); format: in vivo; details: bean leaf discs, after 6 days
In short: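 Bean leaf discs infested with all stages of OP-resistant T. urticae sprayed with compound formulated in acetone/DMF plus alkylaryl polyglycol ether emulsifier, diluted in water. Efficacy (% mites killed) scored after 6 days.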

logP (HPLC-MS) = format: physicochemical
Boophilus microplus = Boophilus microplus test (BOOPMI injection); format: in vivo; details: application rate 20 μg/animal; injected into the abdomen; after 7 days
Procedure: Boophilus microplus Test (BOOPMI Injection) Solvent: dimethyl sulphoxide To prepare an appropriate active ingredient formulation, 10 mg of active ingredient are mixed with 0.5 ml of solvent and the concentrate is diluted with solvent to the desired concentration. The active ingredient solution is injected into the abdomen (Boophilus microplus), and the animals are transferred into dishes and stored in a climate-controlled room. After 7 days, the efficacy in % is determined. The activity is assessed by laying of fertile eggs. 100% means that none of the ticks has laid any fertile eggs.

Ctenocephalides felis = Ctenocephalides felis oral (CTECFE); format: in vivo; details: application rate 100 ppm in citrated cattle blood; after 2 days
Procedure: Ctenocephalides felis Oral ([…]) Solvent: 1 part by weight of dimethyl sulphoxide For the purpose of preparing an appropriate active ingredient formulation, 10 mg of active ingredient are mixed with 0.5 ml of dimethyl sulphoxide. A portion of the concentrate is diluted with citrated cattle blood, and the desired concentration is prepared. About 20 unfed adult fleas (Ctenocephalides felis) are placed into a chamber which is closed at the top and bottom with gauze. A metal cylinder whose bottom end is closed with Parafilm is placed onto the chamber. The cylinder contains the blood/active ingredient formulation, which can be imbibed by the fleas through the Parafilm membrane. After 2 days, the kill in % is determined 100% means that all of the fleas have been killed; 0% means that none of the fleas have been killed.

Lucilia cuprina larvae = test: Lucilia cuprina test (LUCICU); format: in vivo; details: application rate 100 ppm; treated horse meat; after 2 days
Procedure: (§1) Lucilia cuprina Test (LUCICU) Solvent: dimethyl sulphoxide To prepare an appropriate active ingredient formulation, 10 mg of active ingredient are mixed with 0.5 ml of dimethyl sulphoxide and the concentrate is diluted with water to the desired concentration. Vessels containing horse meat treated with the active ingredient formulation of the desired concentration are populated with about 20 Lucilia cuprina larvae. After 2 days, the kill in % is determined. 100% means that all of the larvae have been killed; 0% means that none of the larvae have been killed.

adult Musca domestica = test: Musca domestica test (MUSCDO); format: in vivo; details: application rate 100 ppm; treated sponge; after 2 days
Procedure: as §1, with “Musca domestica” for “Lucilia cuprina”, “(MUSCDO)” for “(LUCICU)”, “a sponge” for “horse meat”, “adult Musca domestica.” for “about 20 Lucilia cuprina larvae.”, “determined” for “determined.”, “flies” for “larvae”

[1] = HPLC, reversed-phase column (C18), 43° C., acidic range pH 2.7, EEC directive 79/831 Annex V.A8, two values = both regioisomers (G = N)
[2] = HPLC, reversed-phase column (C18), acidic range pH 2.7, acetonitrile (0.1% formic acid)/water gradient, 43° C., calibration with unbranched alkan-2-ones

SMILES	log p (logP (HPLC-MS); [1])	log p (logP (HPLC-MS); [2])	efficacy in % (Myzus persicae; application rate 100 g/ha) [%]	efficacy in % (Phaedon cochleariae; application rate 100 g/ha) [%]	efficacy in % (Spodoptera frugiperda; application rate 100 g/ha) [%]	efficacy in % (Tetranychus urticae; application rate 100 g/ha) [%]	efficacy in % (Spodoptera frugiperda; application rate 500 g/ha) [%]	efficacy in % (Tetranychus urticae; application rate 500 g/ha) [%]	also measured
CCn1c(C(=O)NC(c2cccc(C(F)(F)F)c2)C(F)(F)F)cc2cc(C(=O)NC3(C#N)CC3)c(C)cc21 (centres unmarked) [Compound 183]	–	3.75	90	100	100	100	–	–	–
C=CCn1c(C(=O)NC(c2ccc(F)c(C(F)(F)F)c2)C(F)(F)F)nc2cc(C(=O)NC3CC3)c(Cl)cc21 (centres unmarked) [Compound 281]	3.79	–	100	–	–	–	100	100	efficacy in % (Myzus persicae; application rate 500 g/ha): 90%; efficacy in % (Phaedon cochleariae; application rate 500 g/ha): 100%
C#CCn1c(C(=O)NC(c2cccc(Cl)c2)C(F)(F)F)cc2cc(C(=O)NC3CC3)c(Cl)cc21 (centres unmarked) [Compound 5]	–	3.45	–	–	–	–	100	100	efficacy in % (Myzus persicae; application rate 500 g/ha): 90%; efficacy in % (Phaedon cochleariae; application rate 500 g/ha): 100%
N#CCn1c(C(=O)NC(c2ccc(F)c(C(F)(F)F)c2)C(F)(F)F)nc2cc(C(=O)NC3CC3)c(Cl)cc21 (centres unmarked) [Compound 301]	–	–	–	–	–	–	100	90	efficacy in % (Myzus persicae; application rate 500 g/ha): 90%; efficacy in % (Phaedon cochleariae; application rate 500 g/ha): 100%
CCn1c(C(=O)NC(c2ccc(F)c(Cl)c2)C(F)(F)F)cc2cc(C(=O)NC3(C#N)CC3)c(C)cc21 (centres unmarked) [Compound 193]	–	3.66	90	100	100	100	–	–	–
C#CCn1c(C(=O)NC(c2ccc(F)c(Cl)c2)C(F)(F)F)nc2cc(C(=O)NC3CC3)c(Cl)cc21 (centres unmarked) [Compound 101]	–	3.50	80	100	100	80	–	–	–
O=C(NC1CC1)c1cc2nc(C(=O)NC(c3cccc(C(F)(F)F)c3)C(F)(F)F)n(C3CC3)c2cc1Cl (centres unmarked) [Compound 312, 6-chloro-N^5,1-dicyclopropyl-N^2-{2,2,2-trifluoro-1-[3-(trifluoromethyl)phenyl]ethyl}-1H-benzimidazole-2,5-dicarboxamide]	–	–	100	–	–	–	100	–	efficacy in % (Myzus persicae; application rate 500 g/ha): 100%; pest or weed control at 500 g/ha (Phaedon cochleariae; Phaedon cochleariae, foliar, 168 h, application rate 500 g/ha, read-out: efficacy in %): 100%; chromatographic logP (logP (HPLC-MS); HPLC, reversed-phase column (C18), 43° C., acidic range pH 2.7, EEC directive 79/831 Annex V.A8, two values = both regioisomers (G = N), read-out: log p): 3.48; chromatographic logP (logP (HPLC-MS); HPLC-MS): 3.48
CCn1c(C(=O)NC(c2ccc(F)c(Cl)c2)C(F)(F)F)cc2cc(C(=O)NC3(C#N)CC3)c(Cl)cc21 (centres unmarked) [Compound 20]	–	3.79	–	100	100	80	–	–	efficacy (laying of fertile eggs) (Boophilus microplus): 100%; efficacy (kill in %) (Ctenocephalides felis): 100%; efficacy (kill in %) (Lucilia cuprina larvae): 100%; efficacy (kill in %) (adult Musca domestica): 100%
CCn1c(C(=O)NC(c2ccc(F)c(Br)c2)C(F)(F)F)cc2cc(C(=O)NC3(C#N)CC3)c(Cl)cc21 (centres unmarked) [Compound 42]	–	3.76	–	100	100	100	–	–	efficacy (laying of fertile eggs) (Boophilus microplus): 100%; efficacy (kill in %) (Ctenocephalides felis): 100%; efficacy (kill in %) (Lucilia cuprina larvae): 100%; efficacy (kill in %) (adult Musca domestica): 100%
Cn1c(C(=O)NC(c2ccc(F)c(C(F)(F)F)c2)C(F)(F)F)cc2cc(C(=O)NC3CC3)c(Cl)cc21 (centres unmarked) [Compound 49]	–	3.70	–	100	100	100	–	–	efficacy (laying of fertile eggs) (Boophilus microplus): 100%; efficacy (kill in %) (Ctenocephalides felis): 98%; efficacy (kill in %) (Lucilia cuprina larvae): 100%; efficacy (kill in %) (adult Musca domestica): 100%
CCn1c(C(=O)NC(c2ccc(F)c(C(F)(F)F)c2)C(F)(F)F)cc2cc(C(=O)NC3CC3)c(Cl)cc21 (centres unmarked) [Compound 3]	–	3.93	–	100	100	–	–	100	efficacy (laying of fertile eggs) (Boophilus microplus): 100%; efficacy (kill in %) (Ctenocephalides felis): 100%; efficacy (kill in %) (Lucilia cuprina larvae): 100%; efficacy (kill in %) (adult Musca domestica): 100%

More lines, main results first:

log p (logP (HPLC-MS); [1])	log p (logP (HPLC-MS); [2])	SMILES	efficacy in % (Myzus persicae; application rate 100 g/ha) [%]	efficacy in % (Phaedon cochleariae; application rate 100 g/ha) [%]	efficacy in % (Spodoptera frugiperda; application rate 100 g/ha) [%]	efficacy in % (Tetranychus urticae; application rate 100 g/ha) [%]	efficacy in % (Spodoptera frugiperda; application rate 500 g/ha) [%]	efficacy in % (Tetranychus urticae; application rate 500 g/ha) [%]	also measured
4.19	–	CCn1c(C(=O)NC(c2cc(Cl)c(F)c(Cl)c2)C(F)(F)F)cc2cc(C(=O)NC3(C#N)CC3)c(Cl)cc21 (centres unmarked) [Compound 311]	90	100	100	100	–	–	–
4.06	–	CCn1c(C(=O)NC(c2ccc(Cl)c(Cl)c2)C(F)(F)F)cc2cc(C(=O)NC3(C#N)CC3)c(Cl)cc21 (centres unmarked) [Compound 316]	90	100	100	100	–	–	–
3.59	–	O=C(NC1CC1)c1cc2nc(C(=O)NC(c3ccc(F)c(C(F)(F)F)c3)C(F)(F)F)n(C3CC3)c2cc1Br (centres unmarked) [Compound 300]	100	–	–	–	100	100	efficacy in % (Phaedon cochleariae; application rate 500 g/ha): 100%
4.07	–	CCn1c(C(=O)NC(c2cc(Cl)cc(Cl)c2)C(F)(F)F)cc2cc(C(=O)NC3(C#N)CC3)c(C)cc21 (centres unmarked) [Compound 291]	90	100	100	100	–	–	–
3.47	–	CCn1c(C(=O)NC(c2ccc(F)c(F)c2)C(F)(F)F)cc2cc(C(=O)NC3(C#N)CC3)c(Cl)cc21 (centres unmarked) [Compound 315]	90	100	100	100	–	–	–
4.75	–	C=CCN(C(=O)c1cc2nc(C(=O)NC(c3ccc(F)c(Cl)c3)C(F)(F)F)n(CC=C)c2cc1Cl)C1CC1 (centres unmarked) [Compound 303]	90	–	–	–	100	100	efficacy in % (Phaedon cochleariae; application rate 500 g/ha): 100%
4.13	–	CCn1c(C(=O)NC(c2cc(Cl)c(F)c(Cl)c2)C(F)(F)F)cc2cc(C(=O)NC3(C#N)CC3)c(C)cc21 (centres unmarked) [Compound 290]	–	100	100	100	–	–	efficacy in % (Myzus persicae; application rate 500 g/ha): 100%
3.43	–	O=C(NC1CC1)c1cc2nc(C(=O)NC(c3cccc(Br)c3)C(F)(F)F)n(C3CC3)c2cc1Cl (centres unmarked) [Compound 314]	90	100	100	90	–	–	–
3.87	–	CC#CCn1c(C(=O)NC(c2cccc(C(F)(F)F)c2)C(F)(F)F)cc2cc(C(=O)NC3(C#N)CC3)c(Cl)cc21 (centres unmarked) [Compound 285]	–	100	100	100	–	–	efficacy (laying of fertile eggs) (Boophilus microplus): 100%; efficacy (kill in %) (Ctenocephalides felis): 100%; efficacy (kill in %) (Lucilia cuprina larvae): 100%; efficacy (kill in %) (adult Musca domestica): 90%
